From the kinase profiling compilation of Christmann-Franck et al. (2016)

Legend:
Experiment in all cases: KINOMEscan competition binding
Settings in all cases: compound 10.0 µM
AKT1 (human) = AKT1 (human) (UniProt P31749)
CAMK1D (human) = CAMK1D (human) (UniProt Q8IU85)
CDK17 (human) = CDK17 (human) (UniProt Q00537)
CSF1R (human) = CSF1R (human) (UniProt P07333)
CSNK2A1 (human) = CSNK2A1 (human) (UniProt P68400)
CSNK2A2 (human) = CSNK2A2 (human) (UniProt P19784)
EPHA8 (human) = EPHA8 (human) (UniProt P29322)
EPHB1 (human) = EPHB1 (human) (UniProt P54762)
Sequence of EPHB1 (human) (P54762 whole entry, looked up): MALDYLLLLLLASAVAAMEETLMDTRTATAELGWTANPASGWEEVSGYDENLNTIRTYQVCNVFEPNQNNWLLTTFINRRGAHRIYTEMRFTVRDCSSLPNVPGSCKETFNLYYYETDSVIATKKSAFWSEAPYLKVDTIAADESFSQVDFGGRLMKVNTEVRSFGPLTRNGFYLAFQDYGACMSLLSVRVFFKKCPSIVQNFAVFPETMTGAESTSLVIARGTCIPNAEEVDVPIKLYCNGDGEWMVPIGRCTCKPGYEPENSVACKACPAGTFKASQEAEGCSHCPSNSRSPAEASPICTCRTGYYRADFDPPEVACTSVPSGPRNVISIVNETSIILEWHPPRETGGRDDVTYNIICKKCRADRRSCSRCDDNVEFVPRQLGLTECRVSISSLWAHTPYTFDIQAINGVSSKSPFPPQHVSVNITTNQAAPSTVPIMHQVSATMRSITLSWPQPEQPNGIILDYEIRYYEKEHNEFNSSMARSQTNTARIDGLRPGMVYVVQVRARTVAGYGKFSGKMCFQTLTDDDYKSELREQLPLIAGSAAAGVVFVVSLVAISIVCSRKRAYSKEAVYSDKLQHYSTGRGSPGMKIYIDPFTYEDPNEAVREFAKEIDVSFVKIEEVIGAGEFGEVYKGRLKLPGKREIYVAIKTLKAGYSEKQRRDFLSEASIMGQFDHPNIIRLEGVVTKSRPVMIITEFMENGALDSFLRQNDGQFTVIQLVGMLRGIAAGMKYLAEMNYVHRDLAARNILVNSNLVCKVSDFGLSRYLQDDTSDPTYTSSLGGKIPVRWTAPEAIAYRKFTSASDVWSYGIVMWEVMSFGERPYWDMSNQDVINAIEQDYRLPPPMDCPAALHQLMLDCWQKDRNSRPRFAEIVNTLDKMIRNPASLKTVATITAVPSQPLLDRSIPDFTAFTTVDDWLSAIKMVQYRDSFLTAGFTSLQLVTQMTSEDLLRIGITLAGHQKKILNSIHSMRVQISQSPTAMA

EPHB4 (human) = EPHB4 (human) (UniProt P54760)
FES (human) = FES (human) (UniProt P07332)
Sequence of FES (human) (P07332 whole entry, looked up): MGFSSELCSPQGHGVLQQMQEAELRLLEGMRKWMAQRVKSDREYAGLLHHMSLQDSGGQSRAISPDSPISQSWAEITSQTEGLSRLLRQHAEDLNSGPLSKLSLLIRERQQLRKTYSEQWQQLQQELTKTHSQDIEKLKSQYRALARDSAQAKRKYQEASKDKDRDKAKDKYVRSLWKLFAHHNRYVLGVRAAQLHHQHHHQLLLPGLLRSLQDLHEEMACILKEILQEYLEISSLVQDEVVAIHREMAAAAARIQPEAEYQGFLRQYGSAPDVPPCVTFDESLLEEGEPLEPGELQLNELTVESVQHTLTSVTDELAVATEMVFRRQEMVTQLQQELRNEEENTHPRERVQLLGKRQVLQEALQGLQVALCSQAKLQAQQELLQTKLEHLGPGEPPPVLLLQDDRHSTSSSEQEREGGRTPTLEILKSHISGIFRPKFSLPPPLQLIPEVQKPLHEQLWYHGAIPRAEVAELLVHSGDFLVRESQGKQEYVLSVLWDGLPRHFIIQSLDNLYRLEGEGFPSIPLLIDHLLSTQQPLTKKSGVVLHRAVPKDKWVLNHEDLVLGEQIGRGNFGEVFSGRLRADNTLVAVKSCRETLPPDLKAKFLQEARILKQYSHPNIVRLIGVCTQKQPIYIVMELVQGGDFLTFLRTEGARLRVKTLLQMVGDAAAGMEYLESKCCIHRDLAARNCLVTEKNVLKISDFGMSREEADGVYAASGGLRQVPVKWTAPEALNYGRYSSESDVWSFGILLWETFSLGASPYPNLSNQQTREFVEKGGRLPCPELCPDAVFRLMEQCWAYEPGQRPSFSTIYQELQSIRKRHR

FLT1 (human) = FLT1 (human) (UniProt P17948)
[1] = system: FLT3 (human), P36888 [ITD]
GAK (human) = GAK (human) (UniProt O14976)
GSK3B (human) = GSK3B (human) (UniProt P49841)
LCK (human) = LCK (human) (UniProt P06239)
LIMK1 (human) = LIMK1 (human) (UniProt P53667)
LTK (human) = LTK (human) (UniProt P29376)
Sequence of LTK (human) (P29376 whole entry, looked up): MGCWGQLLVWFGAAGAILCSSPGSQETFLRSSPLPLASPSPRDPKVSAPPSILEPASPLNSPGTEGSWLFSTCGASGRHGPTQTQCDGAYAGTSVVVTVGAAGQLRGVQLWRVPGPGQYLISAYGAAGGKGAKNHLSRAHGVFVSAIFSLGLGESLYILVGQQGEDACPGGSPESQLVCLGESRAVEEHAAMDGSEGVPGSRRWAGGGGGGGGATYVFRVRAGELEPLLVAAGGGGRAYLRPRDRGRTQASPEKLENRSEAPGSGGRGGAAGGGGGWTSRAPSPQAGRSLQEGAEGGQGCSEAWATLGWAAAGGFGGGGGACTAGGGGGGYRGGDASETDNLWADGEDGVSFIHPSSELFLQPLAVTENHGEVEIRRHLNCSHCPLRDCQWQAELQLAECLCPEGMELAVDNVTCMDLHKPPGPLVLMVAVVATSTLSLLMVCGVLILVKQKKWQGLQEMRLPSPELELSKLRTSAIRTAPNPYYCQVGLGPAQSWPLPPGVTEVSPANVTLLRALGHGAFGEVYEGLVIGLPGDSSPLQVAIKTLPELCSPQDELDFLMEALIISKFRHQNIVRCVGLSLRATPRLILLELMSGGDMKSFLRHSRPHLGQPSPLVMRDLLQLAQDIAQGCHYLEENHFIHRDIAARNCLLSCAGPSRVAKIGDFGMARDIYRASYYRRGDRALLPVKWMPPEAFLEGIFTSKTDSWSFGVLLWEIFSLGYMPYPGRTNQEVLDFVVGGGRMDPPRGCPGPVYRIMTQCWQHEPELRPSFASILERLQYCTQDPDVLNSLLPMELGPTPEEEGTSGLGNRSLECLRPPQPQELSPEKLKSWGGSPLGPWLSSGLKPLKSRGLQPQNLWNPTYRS

LYN (human) = LYN (human) (UniProt P07948)
MAP3K7 (human) = MAP3K7 (human) (UniProt O43318)
Sequence of MAP3K7 (human) (O43318 whole entry, looked up): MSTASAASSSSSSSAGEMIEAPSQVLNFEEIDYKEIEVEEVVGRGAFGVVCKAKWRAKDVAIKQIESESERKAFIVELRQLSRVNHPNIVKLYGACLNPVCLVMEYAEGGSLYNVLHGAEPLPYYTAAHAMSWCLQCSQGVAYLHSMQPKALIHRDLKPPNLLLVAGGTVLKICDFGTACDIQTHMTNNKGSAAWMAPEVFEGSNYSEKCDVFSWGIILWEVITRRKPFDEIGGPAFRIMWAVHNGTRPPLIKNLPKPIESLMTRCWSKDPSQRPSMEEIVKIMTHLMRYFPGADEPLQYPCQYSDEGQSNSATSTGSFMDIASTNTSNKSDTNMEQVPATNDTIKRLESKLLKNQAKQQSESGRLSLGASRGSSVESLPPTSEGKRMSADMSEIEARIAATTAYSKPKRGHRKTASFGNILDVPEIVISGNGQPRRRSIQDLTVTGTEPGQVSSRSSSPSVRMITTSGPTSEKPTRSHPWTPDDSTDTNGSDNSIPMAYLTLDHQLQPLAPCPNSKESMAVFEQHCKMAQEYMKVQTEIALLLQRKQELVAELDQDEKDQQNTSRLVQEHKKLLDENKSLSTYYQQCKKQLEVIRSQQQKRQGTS

MAPK12 (human) = MAPK12 (human) (UniProt P53778)
MAPK7 (human) = MAPK7 (human) (UniProt Q13164)
MAPK8 (human) = MAPK8 (human) (UniProt P45983)
MKNK2 (human) = MKNK2 (human) (UniProt Q9HBH9)
Sequence of MKNK2 (human) (Q9HBH9 whole entry, looked up): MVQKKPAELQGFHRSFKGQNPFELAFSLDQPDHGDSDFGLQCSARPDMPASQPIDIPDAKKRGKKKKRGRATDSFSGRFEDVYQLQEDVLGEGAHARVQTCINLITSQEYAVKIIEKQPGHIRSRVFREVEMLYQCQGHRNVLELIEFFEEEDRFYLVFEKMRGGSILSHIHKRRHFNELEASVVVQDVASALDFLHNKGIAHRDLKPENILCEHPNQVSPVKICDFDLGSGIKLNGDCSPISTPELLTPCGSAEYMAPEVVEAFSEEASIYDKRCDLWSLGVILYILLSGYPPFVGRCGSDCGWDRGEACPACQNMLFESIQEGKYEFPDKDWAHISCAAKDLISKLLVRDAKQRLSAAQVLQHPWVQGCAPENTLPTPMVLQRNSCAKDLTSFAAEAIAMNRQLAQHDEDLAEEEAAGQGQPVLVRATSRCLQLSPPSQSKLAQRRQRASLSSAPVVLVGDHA

NEK2 (human) = NEK2 (human) (UniProt P51955)
NLK (human) = NLK (human) (UniProt Q9UBE8)
Sequence of NLK (human) (Q9UBE8 whole entry, looked up): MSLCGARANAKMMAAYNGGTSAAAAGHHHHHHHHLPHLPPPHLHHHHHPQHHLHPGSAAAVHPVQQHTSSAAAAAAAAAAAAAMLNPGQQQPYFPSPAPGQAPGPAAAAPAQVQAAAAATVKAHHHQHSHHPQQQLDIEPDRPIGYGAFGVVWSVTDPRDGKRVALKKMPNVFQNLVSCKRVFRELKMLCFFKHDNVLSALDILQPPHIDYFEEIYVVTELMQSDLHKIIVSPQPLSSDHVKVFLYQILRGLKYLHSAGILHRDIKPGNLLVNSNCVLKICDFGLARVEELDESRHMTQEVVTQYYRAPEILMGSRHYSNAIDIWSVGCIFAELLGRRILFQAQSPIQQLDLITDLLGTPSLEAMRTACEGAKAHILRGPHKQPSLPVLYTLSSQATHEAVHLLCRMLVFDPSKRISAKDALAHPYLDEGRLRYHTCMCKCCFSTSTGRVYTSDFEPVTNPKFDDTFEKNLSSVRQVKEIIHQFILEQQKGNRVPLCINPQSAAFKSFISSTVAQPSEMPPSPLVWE

NUAK1 (human) = NUAK1 (human) (UniProt O60285)
PAK3 (human) = PAK3 (human) (UniProt O75914)
PAK7 (human) = PAK7 (human) (UniProt Q9P286)
PIM1 (human) = PIM1 (human) (UniProt P11309)
Sequence of PIM1 (human) (P11309 whole entry, looked up): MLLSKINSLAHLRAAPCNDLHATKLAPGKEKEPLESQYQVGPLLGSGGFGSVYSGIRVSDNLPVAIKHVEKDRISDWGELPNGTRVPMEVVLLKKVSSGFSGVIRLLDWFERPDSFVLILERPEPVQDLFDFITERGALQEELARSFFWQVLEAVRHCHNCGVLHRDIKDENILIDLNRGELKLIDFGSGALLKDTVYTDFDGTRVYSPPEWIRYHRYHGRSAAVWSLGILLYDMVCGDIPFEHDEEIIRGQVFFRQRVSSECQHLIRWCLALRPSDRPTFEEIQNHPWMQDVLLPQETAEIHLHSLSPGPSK

PIM2 (human) = PIM2 (human) (UniProt Q9P1W9)
PIM3 (human) = PIM3 (human) (UniProt Q86V86)
PKMYT1 (human) = PKMYT1 (human) (UniProt Q99640)
PRKCE (human) = PRKCE (human) (UniProt Q02156)
PRKCH (human) = PRKCH (human) (UniProt P24723)
PRKG2 (human) = PRKG2 (human) (UniProt Q13237)
PTK2 (human) = PTK2 (human) (UniProt Q05397)
RPS6KA5 KD1 (human) = RPS6KA5 KD1 (human) (UniProt O75582)
STK36 (human) = STK36 (human) (UniProt Q9NRP7)
TAOK1 (human) = TAOK1 (human) (UniProt Q7L7X3)
TEK (human) = TEK (human) (UniProt Q02763)
ULK1 (human) = ULK1 (human) (UniProt O75385)

Sequence of CSNK2A2 (human) (P19784 whole entry, looked up): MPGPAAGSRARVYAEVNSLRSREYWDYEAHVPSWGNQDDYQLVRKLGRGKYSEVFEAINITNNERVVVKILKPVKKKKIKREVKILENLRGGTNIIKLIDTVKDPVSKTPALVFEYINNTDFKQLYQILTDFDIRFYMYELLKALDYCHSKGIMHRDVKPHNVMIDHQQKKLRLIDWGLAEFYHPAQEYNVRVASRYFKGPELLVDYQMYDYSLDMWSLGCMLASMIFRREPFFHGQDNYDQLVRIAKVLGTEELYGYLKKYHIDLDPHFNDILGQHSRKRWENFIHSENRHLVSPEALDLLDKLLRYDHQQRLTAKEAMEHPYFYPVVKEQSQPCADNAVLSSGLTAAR

## COc1cc(C(=O)NC2CCN(C)CC2)ccc1Nc1ncc2c(n1)N(C1CCCC1)C(C)CC(=O)N2C (configuration not stated)
AKT1 (human)
  kinase still bound, per cent of control: 100%
CAMK1D (human)
  kinase still bound, per cent of control: 17%
CDK17 (human)
  kinase still bound, per cent of control: 100%
CSF1R (human)
  kinase still bound, per cent of control: 100%
CSNK2A1 (human)
  kinase still bound, per cent of control: 100%
CSNK2A2 (human)
  kinase still bound, per cent of control: 100%
EPHA8 (human)
  kinase still bound, per cent of control: 100%
EPHB1 (human)
  kinase still bound, per cent of control: 100%
EPHB4 (human)
  kinase still bound, per cent of control: 100%
FES (human)
  kinase still bound, per cent of control: 100%
FLT1 (human)
  kinase still bound, per cent of control: 100%
[1]
  kinase still bound, per cent of control: 100%
GAK (human)
  kinase still bound, per cent of control: 3.8%
GSK3B (human)
  kinase still bound, per cent of control: 100%
LCK (human)
  kinase still bound, per cent of control: 100%
LIMK1 (human)
  kinase still bound, per cent of control: 100%
LTK (human)
  kinase still bound, per cent of control: 100%
LYN (human)
  kinase still bound, per cent of control: 100%
MAP3K7 (human)
  kinase still bound, per cent of control: 100%
MAPK12 (human)
  kinase still bound, per cent of control: 100%
MAPK7 (human)
  kinase still bound, per cent of control: 100%
MAPK8 (human)
  kinase still bound, per cent of control: 100%
MKNK2 (human)
  kinase still bound, per cent of control: 100%
NEK2 (human)
  kinase still bound, per cent of control: 100%
NLK (human)
  kinase still bound, per cent of control: 100%
NUAK1 (human)
  kinase still bound, per cent of control: 100%
PAK3 (human)
  kinase still bound, per cent of control: 100%
PAK7 (human)
  kinase still bound, per cent of control: 100%
PIM1 (human)
  kinase still bound, per cent of control: 100%
PIM2 (human)
  kinase still bound, per cent of control: 100%
PIM3 (human)
  kinase still bound, per cent of control: 100%
PKMYT1 (human)
  kinase still bound, per cent of control: 100%
PRKCE (human)
  kinase still bound, per cent of control: 100%
PRKCH (human)
  kinase still bound, per cent of control: 100%
PRKG2 (human)
  kinase still bound, per cent of control: 100%
PTK2 (human)
  kinase still bound, per cent of control: 0.4%
RPS6KA5 KD1 (human)
  kinase still bound, per cent of control: 100%
STK36 (human)
  kinase still bound, per cent of control: 100%
TAOK1 (human)
  kinase still bound, per cent of control: 100%
TEK (human)
  kinase still bound, per cent of control: 100%
ULK1 (human)
  kinase still bound, per cent of control: 100%

## C=CC(=O)Nc1cc(NC(=O)c2ccc(C)c(NC(=O)c3ccno3)c2)cc(C(F)(F)F)c1
AKT1 (human)
  kinase still bound, per cent of control: 58%
CAMK1D (human)
  kinase still bound, per cent of control: 83%
CDK17 (human)
  kinase still bound, per cent of control: 92%
CSF1R (human)
  kinase still bound, per cent of control: 38%
CSNK2A1 (human)
  kinase still bound, per cent of control: 100%
CSNK2A2 (human)
  kinase still bound, per cent of control: 81%
EPHA8 (human)
  kinase still bound, per cent of control: 3.6%
EPHB1 (human)
  kinase still bound, per cent of control: 79%
EPHB4 (human)
  kinase still bound, per cent of control: 87%
FES (human)
  kinase still bound, per cent of control: 100%
FLT1 (human)
  kinase still bound, per cent of control: 100%
[1]
  kinase still bound, per cent of control: 99%
GAK (human)
  kinase still bound, per cent of control: 100%
GSK3B (human)
  kinase still bound, per cent of control: 100%
LCK (human)
  kinase still bound, per cent of control: 45%
LIMK1 (human)
  kinase still bound, per cent of control: 100%
LTK (human)
  kinase still bound, per cent of control: 89%
LYN (human)
  kinase still bound, per cent of control: 34%
MAP3K7 (human)
  kinase still bound, per cent of control: 98%
MAPK12 (human)
  kinase still bound, per cent of control: 96%
MAPK7 (human)
  kinase still bound, per cent of control: 92%
MAPK8 (human)
  kinase still bound, per cent of control: 100%
MKNK2 (human)
  kinase still bound, per cent of control: 100%
NEK2 (human)
  kinase still bound, per cent of control: 100%
NLK (human)
  kinase still bound, per cent of control: 93%
NUAK1 (human)
  kinase still bound, per cent of control: 100%
PAK3 (human)
  kinase still bound, per cent of control: 100%
PAK7 (human)
  kinase still bound, per cent of control: 94%
PIM1 (human)
  kinase still bound, per cent of control: 100%
PIM2 (human)
  kinase still bound, per cent of control: 96%
PIM3 (human)
  kinase still bound, per cent of control: 100%
PKMYT1 (human)
  kinase still bound, per cent of control: 83%
PRKCE (human)
  kinase still bound, per cent of control: 100%
PRKCH (human)
  kinase still bound, per cent of control: 100%
PRKG2 (human)
  kinase still bound, per cent of control: 94%
PTK2 (human)
  kinase still bound, per cent of control: 91%
RPS6KA5 KD1 (human)
  kinase still bound, per cent of control: 82%
STK36 (human)
  kinase still bound, per cent of control: 100%
TAOK1 (human)
  kinase still bound, per cent of control: 76%
TEK (human)
  kinase still bound, per cent of control: 100%
ULK1 (human)
  kinase still bound, per cent of control: 100%
